Laboratory results reported in patent US20240199649A1 (Biosplice Therapeutics, Inc., priority 2022, published 2024).

Molecular target: recombinant DYRK1A kinase (Homo sapiens (Human), UniProt Q13627)
Assay: DYRK1A kinase assay (Ser/Thr 18 peptide Z-lyte FRET assay)
Type: biochemical
Settings: DYRK1A 0.25 μg/mL, ATP 15 μM, Ser/Thr peptide 18 4 μM; one hour at room temperature; 11-point dose-response, duplicate
Experimental: Representative compounds were screened using the assay procedure for DYRK1A kinase activity as described below.
Each compound was dissolved in DMSO as a 10 mM stock and used to prepare compound source plates.
This is a non-radioactive assay using fluorescence resonance energy transfer (FRET) between coumarin and fluorescein to detect kinase activity which is represented as a ratio of coumarin emission/fluorescein emission.
The mixture was allowed to incubate with the representative compounds for one hour at room temperature. All reactions were performed in duplicate. Unphosphorylated (“0% Control”) and phosphorylated (“100% control”) forms of Ser/Thr 18 served as control reactions. Additionally, an 11-point dose-response curve of Staurosporine (1 uM top) was run to serve as a positive compound control.
After incubation, Development Reagent A was diluted in Development Buffer then added to the reaction and allowed to further incubate for one hour at room temperature.
Dose-response curves were generated, and inhibitory concentration (IC50) values were calculated using non-linear regression curve fit in the Dotmatics' Studies Software (Bishops Stortford, UK).

C[C@]1(O)CC[C@H](Nc2nc(N)c3c(-c4ccn5nccc5c4)ccn3n2)CC1 [Compound 1, trans-4-((4-Amino-5-(pyrazolo[1,5-a]pyridin-5-yl)pyrrolo[2,1-f][1,2,4]triazin-2-yl)amino)-1-methylcyclohexan-1-ol]
IC50: 172 nM

CNc1nc(N[C@H]2CC[C@](C)(O)CC2)nn2ccc(-c3ccn4nccc4n3)c12 [Compound 20, trans-1-Methyl-4-((4-(methylamino)-5-(pyrazolo[1,5-a]pyrimidin-5-yl)pyrrolo[2,1-f][1,2,4]triazin-2-yl)amino)cyclohexan-1-ol]
IC50: 2.5 nM

CNc1nc(N[C@@H]2CCN(C)CC2(F)F)nn2ccc(-c3ccn4nccc4n3)c12 [Compound 44, (R)—N^2-(3,3-Difluoro-1-methylpiperidin-4-yl)-N^4-methyl-5-(pyrazolo[1,5-a]pyrimidin-5-yl)pyrrolo[2,1-f][1,2,4]triazine-2,4-diamine]
IC50: 5.8 nM

CNc1nc(N[C@H]2CC[C@](C)(O)CC2)nn2ccc(-c3ccc4nccn4c3)c12 [Compound 58, trans-4-((5-(Imidazo[1,2-a]pyridin-6-yl)-4-(methylamino)pyrrolo[2,1-f][1,2,4]triazin-2-yl)amino)-1-methylcyclohexan-1-ol]
IC50: 170 nM

CNc1nc(NC2CCN(C3COC3)CC2)nn2ccc(-c3cnc4nc(C)n(C(C)C)c4c3)c12 [Compound 114]
IC50: 744 nM

CNc1nc(N[C@H]2CC[C@](C)(O)CC2)nn2ccc(-c3ccc4nc(C)n(C(C)C)c4n3)c12 [Compound 132, trans-4-((5-(3-Isopropyl-2-methyl-3H-imidazo[4,5-b]pyridin-5-yl)-4-(methylamino)pyrrolo[2,1-f][1,2,4]triazin-2-yl)amino)-1-methylcyclohexan-1-ol]
IC50: 1.7 nM

CNc1nc(N[C@H]2C[C@](C)(O)C2)nn2ccc(-c3cnc4nc(C)n(CC(F)F)c4c3)c12 [Compound 170, trans-3-((5-(1-(2,2-Difluoroethyl)-2-methyl-1H-imidazo[4,5-b]pyridin-6-yl)-4-(methylamino)pyrrolo[2,1-f][1,2,4]triazin-2-yl)amino)-1-methylcyclobutan-1-ol]
IC50: 4.8 nM

CNc1nc(N[C@H]2CC[C@](C)(O)CC2)nn2ccc(-c3cnc4nc(C)n(CC(F)F)c4c3)c12 [Compound 171, trans-4-((5-(1-(2,2-Difluoroethyl)-2-methyl-1H-imidazo[4,5-b]pyridin-6-yl)-4-(methylamino)pyrrolo[2,1-f][1,2,4]triazin-2-yl)amino)-1-methylcyclohexan-1-ol]
IC50: 8 nM

CNc1nc(N[C@H]2C[C@@H](OCCO)C2)nn2ccc(-c3ccc4nc(C)n(CC(F)F)c4n3)c12 [Compound 172, 2-(cis-3-((5-(3-(2,2-Difluoroethyl)-2-methyl-3H-imidazo[4,5-b]pyridin-5-yl)-4-(methylamino)pyrrolo[2,1-f][1,2,4]triazin-2-yl)amino)cyclobutoxy)ethan-1-ol]
IC50: 0.9 nM

CNc1nc(N[C@H]2C[C@@](C)(O)C2)nn2ccc(-c3ccc4nc(C)n(CC(F)F)c4n3)c12 [Compound 174, Cis-3-((5-(3-(2,2-Difluoroethyl)-2-methyl-3H-imidazo[4,5-b]pyridin-5-yl)-4-(methylamino)pyrrolo[2,1-f][1,2,4]triazin-2-yl)amino)-1-methylcyclobutan-1-ol]
IC50: 1.7 nM

CNc1nc(NC2CCC(F)(F)CC2)nn2ccc(-c3ccc4nc(C)n(CC(F)F)c4n3)c12 [Compound 182, N^2-(4,4-Difluorocyclohexyl)-5-(3-(2,2-difluoroethyl)-2-methyl-3H-imidazo[4,5-b]pyridin-5-yl)-N^4-methylpyrrolo[2,1-f][1,2,4]triazine-2,4-diamine]
IC50: 12 nM

CNc1nc(N[C@H]2CC[C@@H](OC)CC2)nn2ccc(-c3ccc4nc(C)n(CC(F)F)c4n3)c12 [Compound 183, 5-(3-(2,2-Difluoroethyl)-2-methyl-3H-imidazo[4,5-b]pyridin-5-yl)-N^2-(cis-4-methoxycyclohexyl)-N^4-methylpyrrolo[2,1-f][1,2,4]triazine-2,4-diamine]
IC50: 4.1 nM

CNc1nc(N[C@H]2CC[C@@H](OCCO)CC2)nn2ccc(-c3ccc4nc(C)n(CC(F)F)c4n3)c12 [Compound 184, 2-((cis-4-((5-(3-(2,2-Difluoroethyl)-2-methyl-3H-imidazo[4,5-b]pyridin-5-yl)-4-(methylamino)pyrrolo[2,1-f][1,2,4]triazin-2-yl)amino)cyclohexyl)oxy)ethan-1-ol]
IC50: 0.5 nM

CNc1nc(N[C@H]2CC[C@@H](OCCOC)CC2)nn2ccc(-c3ccc4nc(C)n(CC(F)F)c4n3)c12 [Compound 185, 5-(3-(2,2-Difluoroethyl)-2-methyl-3H-imidazo[4,5-b]pyridin-5-yl)-N^2-(cis-4-(2-methoxyethoxy)cyclohexyl)-N^4-methylpyrrolo[2,1-f][1,2,4]triazine-2,4-diamine]
IC50: 2.4 nM

CNc1nc(N[C@H]2CC[C@@H](NC(C)=O)CC2)nn2ccc(-c3ccc4nc(C)n(CC(F)F)c4n3)c12 [Compound 186, N-(cis-4-((5-(3-(2,2-difluoroethyl)-2-methyl-3H-imidazo[4,5-b]pyridin-5-yl)-4-(methylamino)pyrrolo[2,1-f][1,2,4]triazin-2-yl)amino)cyclohexyl)acetamide]
IC50: 1.5 nM

CNc1nc(N[C@H]2CC[C@H](NC(C)=O)CC2)nn2ccc(-c3ccc4nc(C)n(CC(F)F)c4n3)c12 [Compound 187, N-(trans-4-((5-(3-(2,2-Difluoroethyl)-2-methyl-3H-imidazo[4,5-b]pyridin-5-yl)-4-(methylamino)pyrrolo[2,1-f][1,2,4]triazin-2-yl)amino)cyclohexyl)acetamide]
IC50: 1.1 nM

CNc1nc(N[C@H]2CC[C@@](C)(O)CC2)nn2ccc(-c3ccc4nc(C)n(CC(F)F)c4n3)c12 [Compound 188, Cis-4-((5-(3-(2,2-Difluoroethyl)-2-methyl-3H-imidazo[4,5-b]pyridin-5-yl)-4-(methylamino)pyrrolo[2,1-f][1,2,4]triazin-2-yl)amino)-1-methylcyclohexan-1-ol]
IC50: 2.2 nM

CNc1nc(N[C@H]2CC[C@](C)(O)CC2)nn2ccc(-c3ccc4nc(C)n(CC(F)F)c4n3)c12 [Compound 189, trans-4-((5-(3-(2,2-Difluoroethyl)-2-methyl-3H-imidazo[4,5-b]pyridin-5-yl)-4-(methylamino)pyrrolo[2,1-f][1,2,4]triazin-2-yl)amino)-1-methylcyclohexan-1-ol]
IC50: 1.3 nM

CNc1nc(NC23CC4CC(CC(C4)C2)C3)nn2ccc(-c3ccc4nc(C)n(CC(F)F)c4n3)c12 [Compound 196, N^2-(Adamantan-1-yl)-5-(3-(2,2-difluoroethyl)-2-methyl-3H-imidazo[4,5-b]pyridin-5-yl)-N^4-methylpyrrolo[2,1-f][1,2,4]triazine-2,4-diamine]
IC50: 595 nM

CNc1nc(N[C@H]2CN(C)C[C@H]2F)nn2ccc(-c3ccc4nc(C)n(CC(F)F)c4n3)c12 [Compound 197, 5-(3-(2,2-Difluoroethyl)-2-methyl-3H-imidazo[4,5-b]pyridin-5-yl)-N^2-((3S,4R)-4-fluoro-1-methylpyrrolidin-3-yl)-N^4-methylpyrrolo[2,1-f][1,2,4]triazine-2,4-diamine]
IC50: 2 nM

CNc1nc(N[C@@H]2CN(C)C[C@@H]2F)nn2ccc(-c3ccc4nc(C)n(CC(F)F)c4n3)c12 [Compound 198, 5-(3-(2,2-Difluoroethyl)-2-methyl-3H-imidazo[4,5-b]pyridin-5-yl)-N^2-((3R,4S)-4-fluoro-1-methylpyrrolidin-3-yl)-N^4-methylpyrrolo[2,1-f][1,2,4]triazine-2,4-diamine]
IC50: 0.6 nM

CNc1nc(N[C@H]2CN(C3COC3)C[C@H]2F)nn2ccc(-c3ccc4nc(C)n(CC(F)F)c4n3)c12 [Compound 199, 5-(3-(2,2-Difluoroethyl)-2-methyl-3H-imidazo[4,5-b]pyridin-5-yl)-N^2-((3S,4R)-4-fluoro-1-(oxetan-3-yl)pyrrolidin-3-yl)-N^4-methylpyrrolo[2,1-f][1,2,4]triazine-2,4-diamine]
IC50: 2.4 nM

CNc1nc(N[C@@H]2CN(C3COC3)C[C@@H]2F)nn2ccc(-c3ccc4nc(C)n(CC(F)F)c4n3)c12 [Compound 200, 5-(3-(2,2-Difluoroethyl)-2-methyl-3H-imidazo[4,5-b]pyridin-5-yl)-N^2-((3R,4S)-4-fluoro-1-(oxetan-3-yl)pyrrolidin-3-yl)-N^4-methylpyrrolo[2,1-f][1,2,4]triazine-2,4-diamine]
IC50: 1.3 nM

CNc1nc(NC2CCN(CC(F)F)CC2)nn2ccc(-c3ccc4nc(C)n(CC(F)F)c4n3)c12 [Compound 201, 5-(3-(2,2-Difluoroethyl)-2-methyl-3H-imidazo[4,5-b]pyridin-5-yl)-N^2-(1-(2,2-difluoroethyl)piperidin-4-yl)-N^4-methylpyrrolo[2,1-f][1,2,4]triazine-2,4-diamine]
IC50: 0.7 nM

CNc1nc(NC2CCN(C(C)=O)CC2)nn2ccc(-c3ccc4nc(C)n(CC(F)F)c4n3)c12 [Compound 202, 1-(4-((5-(3-(2,2-Difluoroethyl)-2-methyl-3H-imidazo[4,5-b]pyridin-5-yl)-4-(methylamino)pyrrolo[2,1-f][1,2,4]triazin-2-yl)amino)piperidin-1-yl)ethan-1-one]
IC50: 1.8 nM

CNc1nc(NC2CCN(C3COC3)CC2)nn2ccc(-c3ccc4nc(C)n(CC(F)F)c4n3)c12 [Compound 203, 5-(3-(2,2-Difluoroethyl)-2-methyl-3H-imidazo[4,5-b]pyridin-5-yl)-N^4-methyl-N^2-(1-(oxetan-3-yl)piperidin-4-yl)pyrrolo[2,1-f][1,2,4]triazine-2,4-diamine]
IC50: 2 nM
